Here are results for one compound from patent US20250170104A1, “INHIBITORS OF PSEUDOMONAS AERUGINOSA VIRULENCE FACTOR Lasß” (priority 2022, published 2025).

The assay addresses HDAC8 (Homo sapiens (Human), UniProt Q9BY41). Kind of assay: HDAC inhibition. The assay is classed as biochemical. To be noted: read-out: Selectivity IC50 HDAC8. The protocol:
HDAC3 and HDAC8 Inhibitor Screening Assay kits were purchased from Sigma-Aldrich. The assay was performed according to the guidelines of the manufacturer using trichostatin as a positive control. Fluorescence signals were measured in a CLARIOstar plate reader (BMG Labtech).

Broadly, the IC50 is the concentration at which inhibition is half-maximal.

Chain of HDAC8 (Q9BY41 whole entry): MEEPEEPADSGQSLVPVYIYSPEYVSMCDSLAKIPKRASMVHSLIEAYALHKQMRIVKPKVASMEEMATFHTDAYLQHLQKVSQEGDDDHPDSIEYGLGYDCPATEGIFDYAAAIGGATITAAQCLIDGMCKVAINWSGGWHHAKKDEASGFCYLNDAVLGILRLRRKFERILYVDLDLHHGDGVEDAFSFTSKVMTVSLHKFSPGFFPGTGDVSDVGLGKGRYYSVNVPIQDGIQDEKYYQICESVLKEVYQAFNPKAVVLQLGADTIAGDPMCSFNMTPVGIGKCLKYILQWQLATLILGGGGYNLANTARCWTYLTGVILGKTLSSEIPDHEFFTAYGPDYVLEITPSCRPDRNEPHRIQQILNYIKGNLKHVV

On to `CC(C)CC(C(=O)NO)C(=O)Nc1ccc(Cn2cc(CNS(=O)(=O)CC(C)C)nn2)cc1` (stereo not shown) [Compound 169, 2-(Hydroxycarbamoyl)-N-[4-[[4-[(isobutylsulfonylamino)methyl]triazol-1-yl]methyl]phenyl]-4-methyl-pentanamide], for which the IC50 was over 100 µM.
